Earlier results on 13 compounds are cited in publication PMC3066546, “Development of modified nucleosides that have supremely high anti-HIV activity and low toxicity and prevent the emergence of resistant HIV mutants” (Proceedings of the Japan Academy. Series B, Physical and …, 2011).

For data set [1], the system named is RT of the M184V mutant. Also noted: method as in PMID 15456247. Conditions: 4′EddCTP compared with RT of wild-type HIV.
The subject of data set [2] is Hela cells.
The target in data set [3] is Y181C (non-nucleoside reverse transcriptase inhibitor-resistant). Also noted: method as in PMID 11087576, PMID 11577734, PMID 15200030. Particulars: MAGI assay.
Data set [4] deals with M184V drug-resistant HIV. On the set-up: method as in PMID 11087576, PMID 11577734, PMID 15200030. Conditions: MAGI assay.
Data set [5] concerns 41/69/ 125/SG drug-resistant HIV. Also noted: method as in PMID 11087576, PMID 11577734, PMID 15200030. Conditions: MAGI assay.
For data set [6], the system named is M184I drug-resistant HIV. Also noted: method as in PMID 11087576, PMID 11577734, PMID 15200030. Conditions: MAGI assay.
The test system of data set [7] is HXB2 (wild type HIV). Also noted: method as in PMID 11087576, PMID 11577734, PMID 15200030. Particulars: MAGI assay.
Data set [8] concerns HIV-1LAI. Conditions: MTT assay, MT-4 cells. Background: Tetrazolium assays rely on reduction of a dye to a coloured formazan, in cell work by metabolically active cells.
Data set [9] relates to 41/215 drug-resistant HIV. Also noted: method as in PMID 11087576, PMID 11577734, PMID 15200030. Conditions: MAGI assay.
Data set [10] deals with MDR (multidrug-resistant HIV). Conditions: MAGI assay.
Data set [11] relates to MT-4 cells.
Data set [12] deals with L74V drug-resistant HIV. Also noted: method as in PMID 11087576, PMID 11577734, PMID 15200030. Particulars: MAGI assay.
The subject of data set [13] is KH65R drug-resistant HIV. Also noted: method as in PMID 11087576, PMID 11577734, PMID 15200030. Conditions: MAGI assay.
Data set [14] concerns HIV-1MDR. Also noted: method as in PMID 18487070. Particulars: Table 7; read-out: Anti-HIV activity (MAGI assay, µg) HIV-1MDR.
Data set [15] has as its system HIV-1wild. Also noted: method as in PMID 18487070. Conditions: Table 7; read-out: Anti-HIV activity (MAGI assay, µg) HIV-1wild.
Data set [16] has as its system HIV-1M184V. On the set-up: method as in PMID 18487070. Particulars: Table 7; read-out: Anti-HIV activity (MAGI assay, µg) HIV-1M184V.
Data set [17] concerns ICR mice. Particulars: for Mortality (%): six-week-old ICR male mice.
Data set [18] deals with adenosine deaminase. Conditions: 4′EdA to 4′EdI, 4′Ed2AA to 4′EdG.
Data set [19] has as its system adenosine deaminase. On the set-up: method as in PMID 563233, PMID 17548498, PMID 18487070.
The test system of data set [20] is HIVs isolated from seven heavily drug-experienced patients. On the set-up: method as in PMID 11302824, PMID 12455229, PMID 15457679. Particulars: seven heavily drug-experienced AIDS patients, as efficiently as against wild-type HIV.
Data set [21] concerns calf thymus DNA polymerase α. On the set-up: method as in earlier work. Conditions: calf thymus enzyme.
Data set [22] has as its system recombinant rat DNA polymerase β. Also noted: method as in earlier work. Conditions: recombinant rat enzyme.
For data set [23], the system named is HIV. On the set-up: method as in PMID 7764216. Particulars: Table 1; for EC50: anti-HIV.
For data set [24] the following is noted: cytotoxic concentration, Table 1.
On the set-up of data set [25]: method as in PMID 563233, PMID 17548498, PMID 18487070. Conditions: acidic conditions of gastric juices (pH 1.06), 24 ℃.
In data set [26] the target is human mitochondrion DNA polymerase (DNA polymerase γ). Also noted: method as in PMID 17548498, PMID 18487070. Particulars: read-out: EC50 to inhibit the incorporation of dATP.
Where [27] appears, read: intraveneous administration, 1 mg/Kg.
[28] abbreviates: intraveneous administration, 3 mg/Kg.
Where [29] appears, read: intraveneous administration, 10 mg/Kg.
[30] abbreviates: intraveneous administration, 100 mg/Kg.

Read-outs that look alike come from different tables or passages of the source. Where only a bound is given, the exact number is not on record here.

For the compound `C#CC1(COP(=O)(O)OP(=O)(O)OP(=O)(O)O)CCC(n2ccc(N)nc2=O)O1` (single isomer, unassigned) [L-isomer of 4′EddCTP], the “activity against RT of the M184V mutant” value in data set [1] was “not active”.
Regarding `C#C[C@]1(CO)O[C@@H](n2ccc(N)nc2=O)[C@@H](O)[C@@H]1O` [4′EaraC, 4′-C-ethynyl D-arabino-furanosyl cytosine], the CC50 in data set [2] (Table 4, Hela cells) was over 200 µM; in data set [11] (Table 2), 2 µM. The EC50 is 16 nM in data set [3]; 710 nM in [4]; 170 nM in data set [5]; 480 nM in [6]; 7.1 nM in data set [7]; 43 nM in data set [8] (Table 2). Besides, the EC50 in data set [9] is 26 nM; in [10], 7.9 nM; in [12], 26 nM; in data set [13] it was 15 nM.
For the compound `C#C[C@@]1(CO)C=C[C@H](n2cnc3c(N)nc(F)nc32)O1` [4′Ed42FA, 2′,3′-didehydrodideoxy-4′-C-ethynyl-2-fluoroadenosine], the figures for the EC50 in data set [14], in [15] and in data set [16] were 0.15 µM, 800 nM and 1.8 µM, respectively.
In the case of `C#C[C@]1(CO)O[C@@H](n2cnc3c(N)ncnc32)C[C@@H]1O` [4′EdA, 2′-deoxy-4′-C-ethynyladenosine], the CC50 in data set [2] (Table 4, Hela cells) is over 200 µM; in data set [11] (Table 2), 16 µM; in data set [11] (Table 3), 16 µM. In addition, the EC50 in data set [3] was 11 nM; in [4], 47 nM; in data set [5], 65 nM; in data set [6] it was 22 nM; in data set [7] it was 8 nM; in [8] (Table 2), 9.8 nM. Further, the EC50 in data set [9] was 12 nM; in [10] it was 6.2 nM; in [12], 4 nM; in [13], 3.3 nM. The “Mortality (%)” value in data set [17] (setting [27]) is listed as 0%; in data set [17] (setting [28]) it was 0%; in data set [17] (setting [29]), 0%; in data set [17] (setting [30]), 0%; in data set [17] (oral administration, 1 mg/Kg), 0%; in data set [17] (oral administration, 3 mg/Kg), 0%. Moreover, the “Mortality (%)” value in data set [17] (oral administration, 10 mg/Kg) is 0%; in data set [17] (oral administration, 100 mg/Kg), 0%. In [17] (single dosage of 3–100 mg kg−1, both intravenous and oral), the survival of mice entry is “All eight mice survived”. Besides, in data set [18], the “conversion by adenosine deaminase in mice” value was “easily converted to 4′EdI”. Further, the “time to complete deamination by adenosine deaminase” value in [19] is listed as 60 min. Further, in data set [20], the “potency against HIVs isolated from patients” value is recorded as “highly potent”.
With `C#C[C@]1(CO)O[C@@H](n2ccc(N)nc2=O)C[C@@H]1O` [4′EdC, 4′-C-ethynyl-2′-deoxycytidine], the EC50 in [3] is 2.1 nM; in data set [4] it was 2.4 nM; in [5], 15 nM; in data set [6], 2.6 nM; in data set [7], 1.2 nM; in [8] (Table 2, listed as 4′-C-ethynyl-2′-deoxycytidine) it was 4.8 nM. The EC50 in data set [9] is 6 nM; in data set [12] it was 1.3 nM; in data set [13], 0.8 nM.
For `C#C[C@]1(CO)O[C@@H](n2cnc3c(=O)[nH]c(N)nc32)C[C@@H]1O` [4′EdG, 2′-deoxy-4′-C-ethynylguanosine], the CC50 in data set [2] (Table 4, Hela cells) was 52 µM; in data set [11] (Table 3), 1.5 µM. Further, the EC50 was 10 nM in data set [3]; 8 nM in data set [4]; 6.8 nM in data set [5]; 4.1 nM in data set [6]; 7 nM in data set [7]; 1.4 nM in data set [8] (Table 3). For the same compound, the EC50 in [9] was 19 nM; in [10], 4.8 nM; in data set [12], 1.2 nM; in data set [13], 1 nM. In addition, the “Mortality (%)” value in [17] (setting [27]) is 0%; in data set [17] (setting [28]), 100%; in data set [17] (setting [29]) it was 100%; in data set [17] (setting [30]), 100%; in data set [17] (oral administration, 1 mg/Kg), 0%; in data set [17] (oral administration, 3 mg/Kg) it was 100%. Also, the “Mortality (%)” value is 100% in data set [17] (oral administration, 10 mg/Kg) and 100% in data set [17] (oral administration, 100 mg/Kg). The “survival days of mice after administration” value in data set [17] (intraveneous, 3 mg/Kg) was 4 days; in [17] (intraveneous, 10 mg/Kg), 2 days; in [17] (intraveneous, 100 mg/Kg), 1 days; in data set [17] (oral, 3 mg/Kg) it was 4 days; in data set [17] (oral, 10 mg/Kg), 4 days; in [17] (oral, 100 mg/Kg) it was 1 days. The “potency against HIVs isolated from patients” value in data set [20] is reported as “highly potent”.
On to `C#C[C@@]1(CO)CC[C@H](n2cnc3c(N)nc(F)nc32)O1` [4′Edd2FA, 2′,3′-dideoxy-4′-C-ethynyl-2-fluoroadenosine], for which the EC50 in data set [14] was 8.7 µM; in [15], 940 nM; in [16], 97 µM.
For the compound `CC1(COP(=O)(O)OP(=O)(O)OP(=O)(O)O)OC(n2ccc(N)nc2=O)C(O)C1O` (stereo not shown) [4′MAraCTP], in data set [21], the “chain termination of DNA polymerase α” value is given as “chain terminator”. In data set [22], the “chain termination of DNA polymerase β” value is reported as “chain terminator”.
As to `CC1(COP(=O)(O)OP(=O)(O)OP(=O)(O)O)OC(n2ccc(N)nc2=O)CC1O` (stereo not shown) [4′MdCTP], the “chain termination of DNA polymerase α” value in data set [21] is given as “chain terminator”. The “chain termination of DNA polymerase β” value in data set [22] was “chain terminator”.
As for `Nc1ccn([C@@H]2CS[C@H](CO)O2)c(=O)n1` [Compound 3TC, 2′,3′-dideoxy-3′-thia-L-cytidine, reference compound], the CC50 in [2] and in data set [11] was over 100 µM in each case. Besides, the EC50 in data set [14] is 2.8 µM; in data set [4] it was over 100000 nM; in data set [5], 9900 nM; in data set [15], 1000 nM; in data set [6], over 100000 nM; in data set [7], 710 nM. Besides, the EC50 in data set [16] was over 100 µM; in data set [8] (Table 2) it was 100 nM; in data set [10], 1100 nM.
With `Cc1cn([C@H]2C=C[C@@H](CO)O2)c(=O)[nH]c1=O` [d4T, 2′,3′-didehydro-3′-deoxythymidine, reference compound], the EC50 in [14] was 64 µM; in data set [15], 7600 nM; in data set [23], 4.1 µM; in data set [16], 5.6 µM. In [23], the “SI (CC50/EC50)” value is on record as over 120. Also, the CC50 in [24] is over 500 µM.
As to `Nc1ncnc2c1ncn2[C@H]1CC[C@@H](CO)O1` [ddA, 2′,3′-dideoxyadenosine, reference compound], the “time to complete decomposition” value in [25] is recorded as 5 min. Moreover, in data set [23], the “SI (CC50/EC50)” value was over 11 and the EC50 was 47 µM. Further, the CC50 in data set [24] is over 500 µM.
In the case of `Nc1ncnc2c1ncn2[C@H]1CC[C@@H](CO[P@@](=O)(O)O[P@](=O)(O)OP(=O)(O)O)O1` [ddATP, 2′,3′-dideoxyadenosine-5-O-triphosphate, reference compound], in [26], the EC50 was 200 nM.

By CC50 is commonly meant the concentration giving 50% cytotoxicity.
